Consider 15 substances from patent publication US20050060764A1, “Mouse model for bone metabolism” (priority 2003, published 2005).

Strand notation (5' to 3'): a small letter for the sugar, then the base; units joined by * are phosphorothioate-linked, units joined directly phosphodiester-linked; [ ] holds rarer units or linkages, { } end groups; capitals alone tell only the bases. e = 2'-O-(2-methoxyethyl) (MOE); [5mC] = 5-methylcytosine; d = 2'-deoxy (DNA)

In the data set the test system is rat RANKL mRNA. Briefly: Antisense inhibition of rat RANKL mRNA levels in UMR-106 cells, quantitative real-time PCR (Table 3). It counts as cell-based. On the set-up: concentration or dose not given beside the values. Particulars: averages from three experiments. As to the method: Cells were seeded onto 24-well plates (Falcon-353047) at a density of […] for use in antisense oligonucleotide transfection.
Cells are treated and data are obtained in triplicate. […] Cells were harvested 16-24 hours after oligonucleotide treatment.
PCR reagents were obtained from Invitrogen Corporation, (Carlsbad, Calif.).
Probes and primers to rat RANKL were designed to hybridize to a rat RANKL sequence, using published sequence information (GenBank accession number NM_057149.1, incorporated herein as SEQ ID NO:18). For rat RANKL the PCR primers were: • forward primer: […] (SEQ ID NO:19) • reverse primer: […] (SEQ ID NO: 20) and the • PCR probe was: FAM-[…]-TAMRA (SEQ ID NO: 21) where FAM is the fluorescent reporter dye and TAMRA is the quencher dye. For rat GAPDH the PCR primers were: • forward primer: […](SEQ ID NO:22) • reverse primer: […](SEQ ID NO:23) and the • PCR probe was: 5′ JOE-[…]-TAMRA 3′ (SEQ ID NO: 24) where JOE is the fluorescent reporter dye and TAMRA is the quencher dye.
In accordance with the present invention, a second series of antisense compounds was designed to target different regions of the rat RANKL RNA, using published sequences (GenBank accession number NM_057149.1, incorporated herein as SEQ ID NO: 18, and GenBank accession number AF425669.1, incorporated herein as SEQ ID NO: 200). […] All cytidine residues are 5-methylcytidines. […] If present, “N.D.” indicates “no data”.
Consider “gatattctgttaggatccat (eG*eA*eT*eA*eT*dT*d[5mC]*dT*dG*dT*dT*dA*dG*dG*dA*eT*e[5mC]*e[5mC]*eA*eT; antisense) [ISIS 286597, 2′-MOE gapmer targeted to rat RANKL]”, for which the “% INHIB (inhibition of rat RANKL mRNA levels)” value (shortened to “% INHIB”) is recorded as “at least 40%”. In the case of “cgcgtgctgtcttctgatat (e[5mC]*eG*e[5mC]*eG*eT*dG*d[5mC]*dT*dG*dT*d[5mC]*dT*dT*d[5mC]*dT*eG*eA*eT*eA*eT; antisense) [ISIS 286599, 2′-MOE gapmer targeted to rat RANKL]” it was “at least 40%”; in that of “agttttccgttgcttaacgt (eA*eG*eT*eT*eT*dT*d[5mC]*d[5mC]*dG*dT*dT*dG*d[5mC]*dT*dT*eA*eA*e[5mC]*eG*eT; antisense) [ISIS 286617, 2′-MOE gapmer targeted to rat RANKL]”, “at least 40%”. As for “286593 (antisense e[5mC]*eT*eG*e[5mC]*eG*d[5mC]*dT*d[5mC]*dG*dA*dA*dA*dG*dT*dA*e[5mC]*eA*eG*eG*eA) [compound 286593]”, the “% INHIB” value turned out to be 49%. Regarding “taggatccatctgcgctcga (eT*eA*eG*eG*eA*dT*d[5mC]*d[5mC]*dA*dT*d[5mC]*dT*dG*d[5mC]*dG*e[5mC]*eT*e[5mC]*eG*eA; antisense) [ISIS 286595, 2′-MOE gapmer targeted to rat RANKL]”, the “% INHIB” value is listed as “at least 40%”.

Consider “tcagtctatgtcttgaactt (eT*e[5mC]*eA*eG*eT*d[5mC]*dT*dA*dT*dG*dT*d[5mC]*dT*dT*dG*eA*eA*e[5mC]*eT*eT; antisense) [ISIS 286642, 2′-MOE gapmer targeted to rat RANKL]”, for which the “% INHIB” value was “at least 40%”. In the case of “286645 (antisense e[5mC]*eT*eT*eA*eG*dT*dA*dG*dT*d[5mC]*dT*dT*dA*d[5mC]*dA*e[5mC]*eA*eT*eG*eT) [compound 286645]” it was 51%. The value for “ctttgaaagccccaaagtac (e[5mC]*eT*eT*eT*eG*dA*dA*dA*dG*d[5mC]*d[5mC]*d[5mC]*d[5mC]*dA*dA*eA*eG*eT*eA*e[5mC]; antisense) [ISIS 286641, 2′-MOE gapmer targeted to rat RANKL]” was “at least 40%”; that for “286629 (antisense eA*e[5mC]*e[5mC]*eA*eT*d[5mC]*dA*dG*d[5mC]*dT*dG*dA*dA*dG*dA*eT*eA*eG*eT*e[5mC]) [compound 286629]” was 63%; that for “ctgcgctcgaaagtacagga (e[5mC]*eT*eG*e[5mC]*eG*d[5mC]*dT*d[5mC]*dG*dA*dA*dA*dG*dT*dA*e[5mC]*eA*eG*eG*eA; antisense) [ISIS 286593, 2′-MOE gapmer targeted to rat RANKL]” was “at least 40%”. For the substance “286625 (antisense eG*e[5mC]*eG*eT*eA*d[5mC]*dA*dG*dG*dT*dA*dA*dT*dA*dG*eA*eA*eG*e[5mC]*e[5mC]) [compound 286625]”, the “% INHIB” value turned out to be 50%. With “286599 (antisense e[5mC]*eG*e[5mC]*eG*eT*dG*d[5mC]*dT*dG*dT*d[5mC]*dT*dT*d[5mC]*dT*eG*eA*eT*eA*eT) [compound 286599]”, the “% INHIB” value stood at 46%. Consider “286638 (antisense eA*eG*eT*eA*e[5mC]*dG*dT*d[5mC]*dG*d[5mC]*dA*dT*d[5mC]*dT*dT*eG*eA*eT*e[5mC]*e[5mC]) [compound 286638]”, for which the “% INHIB” value is 26%.

For the substance “ggttaacccttagttttccg (eG*eG*eT*eT*eA*dA*d[5mC]*d[5mC]*d[5mC]*dT*dT*dA*dG*dT*dT*eT*eT*e[5mC]*e[5mC]*eG; antisense) [ISIS 286619, 2′-MOE gapmer targeted to rat RANKL]”, the “% INHIB” value was “at least 40%”. Turning to “180806 (antisense eG*eG*e[5mC]*eA*eG*d[5mC]*dA*dT*dT*dG*dA*dT*dG*dG*dT*eG*eA*eG*eG*eT) [compound 180806]”, the “% INHIB” value amounted to 9%.
